Data from publication PMC6328172, “5-HT2 receptor binding, functional activity and selectivity in N-benzyltryptamines” (PLoS ONE, 2019).
Where a name gives a salt, the structure may show the parent alone.

Columns and labels:
human 5-HT2A receptor [1] = molecular target: T1, human 5-HT2A receptor (Homo sapiens, UniProt P28223); experiment: Competition binding to the human 5-HT2A receptor ([3H]ketanserin, CHO-5-HT2A membranes); conditions: for Selectivity 5-HT2A/2C (binding): from Ki values, Table 1; for Ki: human receptor, [3H]ketanserin displacement, no unit in the table, nM, read-out: 5-HT2A Ki (in parentheses) (converted)
T1 construct: expressed in transfected cells; host or cells: CHO (CHO-5-HT2A cell line)
T1 sequence (P28223 whole entry): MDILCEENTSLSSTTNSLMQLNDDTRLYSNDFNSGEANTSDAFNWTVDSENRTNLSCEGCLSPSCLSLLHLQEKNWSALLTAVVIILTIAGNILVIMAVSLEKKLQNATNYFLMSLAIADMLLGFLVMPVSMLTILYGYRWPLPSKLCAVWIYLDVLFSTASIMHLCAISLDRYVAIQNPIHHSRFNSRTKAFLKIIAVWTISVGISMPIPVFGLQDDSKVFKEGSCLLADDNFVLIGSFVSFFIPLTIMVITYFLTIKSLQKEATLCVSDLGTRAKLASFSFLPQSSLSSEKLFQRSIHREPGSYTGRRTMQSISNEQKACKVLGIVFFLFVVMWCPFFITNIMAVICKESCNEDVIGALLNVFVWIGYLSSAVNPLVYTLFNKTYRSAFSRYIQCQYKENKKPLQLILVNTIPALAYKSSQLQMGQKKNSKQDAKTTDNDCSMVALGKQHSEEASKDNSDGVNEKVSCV

human 5-HT2C receptor [2] = molecular target: T2, human 5-HT2C receptor (Homo sapiens, UniProt P28335); experiment: Competition binding to the human 5-HT2C receptor ([3H]mesulergine, HeLa-5-HT2C membranes); conditions: for Selectivity 5-HT2C/2A (binding, in parentheses): from Ki values, Table 1; for Ki: human receptor, [3H]mesulergine displacement, no unit in the table, nM, read-out: 5-HT2C Ki (in parentheses) (converted)
T2 construct: expressed in transfected cells; host or cells: HeLa (HeLa-5-HT2C cell line)
T2 sequence (P28335 33-458): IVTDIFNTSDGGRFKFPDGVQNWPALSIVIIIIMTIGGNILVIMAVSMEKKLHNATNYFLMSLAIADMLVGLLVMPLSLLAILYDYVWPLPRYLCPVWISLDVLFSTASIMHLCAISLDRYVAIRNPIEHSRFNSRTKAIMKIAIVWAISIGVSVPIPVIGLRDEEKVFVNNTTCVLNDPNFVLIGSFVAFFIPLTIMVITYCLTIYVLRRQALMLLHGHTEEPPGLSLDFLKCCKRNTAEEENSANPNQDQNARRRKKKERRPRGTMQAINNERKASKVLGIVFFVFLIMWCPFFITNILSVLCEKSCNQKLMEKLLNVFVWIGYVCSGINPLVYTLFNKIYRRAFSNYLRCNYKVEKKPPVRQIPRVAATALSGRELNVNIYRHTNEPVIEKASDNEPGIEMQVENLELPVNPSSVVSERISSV

human 5-HT2A receptor [3] = molecular target: T1, human 5-HT2A receptor; experiment: Ca2+ mobilization in CHO h5-HT2A cells; type: cell-based; conditions: for EC50: Ca2+ mobilization, no unit in the table, nM, read-out: 5-HT2A EC50 (in parentheses) (converted); for Selectivity 5-HT2A/2C (functional): from EC50 values, Table 2; for Emax: relative efficacy, % of response to 5-HT
human 5-HT2C receptor [4] = molecular target: T2, human 5-HT2C receptor; experiment: Ca2+ mobilization in HeLa h5-HT2C cells; type: cell-based; conditions: for EC50: Ca2+ mobilization, no unit in the table, nM, read-out: 5-HT2C EC50 (in parentheses) (converted); for Emax: HeLa, read-out: 5-HT2C % Emax; for Selectivity 5-HT2C/2A (functional, in parentheses): from EC50 values, Table 2
human 5-HT2B receptor = human 5-HT2B receptor (Homo sapiens, UniProt P41595); experiment: Competition binding to the human 5-HT2B receptor ([3H]LSD, CHO-5-HT2B membranes)
human 5-HT2B receptor, sequence (P41595 whole entry): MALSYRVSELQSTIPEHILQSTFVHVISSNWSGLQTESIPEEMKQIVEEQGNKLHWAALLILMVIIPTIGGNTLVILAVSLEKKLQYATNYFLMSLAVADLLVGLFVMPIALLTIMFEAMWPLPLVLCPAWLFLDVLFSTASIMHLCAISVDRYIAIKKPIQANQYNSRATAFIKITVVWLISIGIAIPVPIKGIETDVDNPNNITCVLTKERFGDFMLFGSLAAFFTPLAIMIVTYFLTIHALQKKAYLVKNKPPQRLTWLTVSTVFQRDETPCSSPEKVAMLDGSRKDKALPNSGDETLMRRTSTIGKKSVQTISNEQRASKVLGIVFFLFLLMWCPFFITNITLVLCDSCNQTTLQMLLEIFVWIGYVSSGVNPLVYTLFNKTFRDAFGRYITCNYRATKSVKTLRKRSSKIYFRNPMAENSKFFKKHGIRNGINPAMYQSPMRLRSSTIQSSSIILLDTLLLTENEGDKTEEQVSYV

COc1ccc(CNCCc2c[nH]c3ccccc23)c(OC)c1 (as salt: hydrochloride) [Compound 32, N-(2,4-Dimethoxybenzyl)-[2-(1H-indol-3-yl)ethyl]amine]
melting point: 184 to 186 °C

COc1ccc2[nH]cc(CCNCc3cc(F)ccc3O)c2c1 (as salt: fumarate) [Compound 43, N-(5-Fluoro-2-hydroxybenzyl)-[2-(5-methoxy-1H-indol-3-yl)ethyl]amine]
melting point: 200 to 201 °C

Oc1ccc(Br)cc1CNCCc1c[nH]c2ccccc12 (as salt: hydrochloride) [Compound 26, N-(5-Bromo-2-hydroxybenzyl)-[2-(1H-indol-3-yl)ethyl]amine]
melting point: 188 to 189 °C

Oc1cccc(CNCCc2c[nH]c3ccccc23)c1 (as salt: fumarate) [Compound 7, N-(3-Hydroxybenzyl)-[2-(1H-indol-3-yl)ethyl]amine]
melting point: 206 to 207 °C

O=[N+]([O-])c1ccc(O)c(CNCCc2c[nH]c3ccccc23)c1 (as salt: hydrochloride) [Compound 30, N-(5-Nitro-2-hydroxybenzyl)-[2-(1H-indol-3-yl)ethyl]amine]
melting point: 194 to 196 °C

COc1cccc(CNCCc2c[nH]c3ccccc23)c1OC (as salt: hydrochloride) [Compound 20, N-(2,3-Dimethoxybenzyl)-[2-(1H-indol-3-yl)ethyl]amine]
melting point: 210 to 212 °C

Oc1c(F)cccc1CNCCc1c[nH]c2ccccc12 (as salt: succinate) [Compound 22, N-(3-Fluoro-2-hydroxybenzyl)-[2-(1H-indol-3-yl)ethyl]amine]
melting point: 151 to 152 °C

Oc1cccc(F)c1CNCCc1c[nH]c2ccccc12 (as salt: succinate) [Compound 34, N-(6-Fluoro-2-hydroxybenzyl)-[2-(1H-indol-3-yl)ethyl]amine]
melting point: 159 to 161 °C

Oc1c(Br)cccc1CNCCc1c[nH]c2ccccc12 (as salt: succinate) [Compound 21, N-(3-Bromo-2-hydroxybenzyl)-[2-(1H-indol-3-yl)ethyl]amine]
melting point: 141 to 142 °C

Oc1ccccc1CNCCc1c[nH]c2ccccc12 (as salt: hydrochloride) [Compound 2, N-(2-Hydroxybenzyl)-[2-(1H-indol-3-yl)ethyl]amine]
melting point: 222 to 223 °C

Oc1ccc(F)cc1CNCCc1c[nH]c2ccccc12 (as salt: hydrochloride) [Compound 24, N-(5-Fluoro-2-hydroxybenzyl)-[2-(1H-indol-3-yl)ethyl]amine]
melting point: 185 to 186 °C

Oc1cccc(Br)c1CNCCc1c[nH]c2ccccc12 (as salt: hydrochloride) [Compound 33, N-(6-Bromo-2-hydroxybenzyl)-[2-(1H-indol-3-yl)ethyl]amine]
melting point: 195 to 196 °C

CCOc1ccc(CNCCc2c[nH]c3ccccc23)cc1 (as salt: hydrochloride) [Compound 15, N-(4-Ethoxybenzyl)-[2-(1H-indol-3-yl)ethyl]amine]
melting point: 206 to 208 °C

COc1ccc(F)cc1CNCCc1c[nH]c2ccccc12 (as salt: hydrochloride) [Compound 25, N-(5-Fluoro-2-methoxybenzyl)-[2-(1H-indol-3-yl)ethyl]amine]
melting point: 179 to 180 °C

Oc1c(Br)cc(Br)cc1CNCCc1c[nH]c2ccccc12 (as salt: hydrochloride) [Compound 35, N-(3,5-Dibromo-2-hydroxybenzyl)-[2-(1H-indol-3-yl)ethyl]amine]
melting point: 183 to 184 °C

c1ccc(CNCCc2c[nH]c3ccccc23)cc1 [Compound 1, N-Benzyl-[2-(1H-indol-3-yl)ethyl]amine]
Selectivity 5-HT2A/2C (binding) (human 5-HT2A receptor [1]): 0.75 | Ki (human 5-HT2A receptor [1]): 245 nM | Selectivity 5-HT2C/2A (binding, in parentheses) (human 5-HT2C receptor [2]): 1.33 | Ki (human 5-HT2C receptor [2]): 186 nM | EC50 (human 5-HT2A receptor [3]): 162 nM | Selectivity 5-HT2A/2C (functional) (human 5-HT2A receptor [3]): 0.31 | Emax (human 5-HT2A receptor [3]): 61.6 ± 5.17% | EC50 (human 5-HT2C receptor [4]): 50.1 nM | Emax (human 5-HT2C receptor [4]): 121 ± 6.58% | Selectivity 5-HT2C/2A (functional, in parentheses) (human 5-HT2C receptor [4]): 3.24 | Ki (human 5-HT2B receptor): 100 nM

COc1ccc(OC)c(CNCCc2c[nH]c3ccccc23)c1 (as salt: hydrochloride) [Compound 29, N-(2,5-Dimethoxybenzyl)-[2-(1H-indol-3-yl)ethyl]amine]
melting point: 175 to 176 °C

Clc1ccccc1CNCCc1c[nH]c2ccccc12 [Compound 5, N-(2-Chlorobenzyl)-[2-(1H-indol-3-yl)ethyl]amine]
Selectivity 5-HT2A/2C (binding) (human 5-HT2A receptor [1]): 2.04 | Ki (human 5-HT2A receptor [1]): 12 nM | Selectivity 5-HT2C/2A (binding, in parentheses) (human 5-HT2C receptor [2]): 0.49 | Ki (human 5-HT2C receptor [2]): 24.6 nM | times less potent than its 5-methoxytryptamine analog, h5-HT2A functional assay (human 5-HT2A receptor [3]; 3 vs 38, 5 vs 39): ~40 times | EC50 (human 5-HT2A receptor [3]): 468 nM | Selectivity 5-HT2A/2C (functional) (human 5-HT2A receptor [3]): 0.42 | Emax (human 5-HT2A receptor [3]): 25.5 ± 1.16% | EC50 (human 5-HT2C receptor [4]): 195 nM | Emax (human 5-HT2C receptor [4]): 87.1 ± 4.96% | Selectivity 5-HT2C/2A (functional, in parentheses) (human 5-HT2C receptor [4]): 2.40 | Ki (human 5-HT2B receptor): 23.4 nM

Oc1c(F)cccc1CNCCc1c[nH]c2ccccc12 [Compound 22, N-(3-Fluoro-2-hydroxybenzyl)-[2-(1H-indol-3-yl)ethyl]amine]
Selectivity 5-HT2A/2C (binding) (human 5-HT2A receptor [1]): 0.82 | Ki (human 5-HT2A receptor [1]): 209 nM | Selectivity 5-HT2C/2A (binding, in parentheses) (human 5-HT2C receptor [2]): 1.22 | Ki (human 5-HT2C receptor [2]): 178 nM | EC50 (human 5-HT2A receptor [3]): 162 nM | Selectivity 5-HT2A/2C (functional) (human 5-HT2A receptor [3]): 0.105 | Emax (human 5-HT2A receptor [3]): 53.6 ± 4.49% | EC50 (human 5-HT2C receptor [4]): 17 nM | Emax (human 5-HT2C receptor [4]): 104 ± 4.96% | Selectivity 5-HT2C/2A (functional, in parentheses) (human 5-HT2C receptor [4]): 9.55 | Ki (human 5-HT2B receptor): 129 nM

COc1ccc(O)c(CNCCc2c[nH]c3ccc(OC)cc23)c1 (as salt: fumarate) [Compound 42, N-(2-Hydroxy-5-methoxybenzyl)-[2-(5-methoxy-1H-indol-3-yl)ethyl]amine]
melting point: 196 to 197 °C

Cc1ccccc1CNCCc1c[nH]c2ccccc12 [Compound 4, N-(2-Methylbenzyl)-[2-(1H-indol-3-yl)ethyl]amine]
inhibition at 10 µM (human 5-HT2A receptor [1]; 10 μM, values marked *): 48 ± 1% | Ki (human 5-HT2C receptor [2]): 661 nM | EC50 (human 5-HT2A receptor [3]): 2000 nM | Selectivity 5-HT2A/2C (functional) (human 5-HT2A receptor [3]): 0.069 | Emax (human 5-HT2A receptor [3]): 44.4 ± 2.79% | EC50 (human 5-HT2C receptor [4]): 138 nM | Emax (human 5-HT2C receptor [4]): 107 ± 2.9% | Selectivity 5-HT2C/2A (functional, in parentheses) (human 5-HT2C receptor [4]): 14.5 | Ki (human 5-HT2B receptor): 339 nM

COc1ccc(CNCCc2c[nH]c3ccccc23)cc1OC [Compound 36, N-(3,4-Dimethoxybenzyl)-[2-(1H-indol-3-yl)ethyl]amine]
Selectivity 5-HT2A/2C (binding) (human 5-HT2A receptor [1]): 0.92 | Ki (human 5-HT2A receptor [1]): 1290 nM | Selectivity 5-HT2C/2A (binding, in parentheses) (human 5-HT2C receptor [2]): 1.09 | Ki (human 5-HT2C receptor [2]): 1200 nM | EC50 (human 5-HT2A receptor [3]): 2240 nM | Selectivity 5-HT2A/2C (functional) (human 5-HT2A receptor [3]): 0.026 | Emax (human 5-HT2A receptor [3]): 50.5 ± 8.27% | EC50 (human 5-HT2C receptor [4]): 57.5 nM | Emax (human 5-HT2C receptor [4]): 100 ± 2.85% | Selectivity 5-HT2C/2A (functional, in parentheses) (human 5-HT2C receptor [4]): 38.9 | Ki (human 5-HT2B receptor): 288 nM

Cc1ccc(O)c(CNCCc2c[nH]c3ccccc23)c1 (as salt: fumarate) [Compound 23, N-(2-Hydroxy-5-methylbenzyl)-[2-(1H-indol-3-yl)ethyl]amine]
melting point: 183 to 185 °C

COc1ccc(Br)cc1CNCCc1c[nH]c2ccccc12 (as salt: hydrochloride) [Compound 27, N-(5-Bromo-2-methoxybenzyl)-[2-(1H-indol-3-yl)ethyl]amine]
melting point: 192 to 193 °C

Oc1cc(Br)ccc1CNCCc1c[nH]c2ccccc12 (as salt: hydrochloride) [Compound 31, N-(4-Bromo-2-hydroxybenzyl)-[2-(1H-indol-3-yl)ethyl]amine]
melting point: 192 to 194 °C

Brc1ccccc1CNCCc1c[nH]c2ccccc12 [Compound 6, N-(2-Bromobenzyl)-[2-(1H-indol-3-yl)ethyl]amine]
Selectivity 5-HT2A/2C (binding) (human 5-HT2A receptor [1]): 1.74 | Ki (human 5-HT2A receptor [1]): 195 nM | Selectivity 5-HT2C/2A (binding, in parentheses) (human 5-HT2C receptor [2]): 0.57 | Ki (human 5-HT2C receptor [2]): 339 nM | EC50 (human 5-HT2A receptor [3]): 2240 nM | Selectivity 5-HT2A/2C (functional) (human 5-HT2A receptor [3]): 0.10 | Emax (human 5-HT2A receptor [3]): 29.3 ± 5.93% | EC50 (human 5-HT2C receptor [4]): 234 nM | Emax (human 5-HT2C receptor [4]): 109 ± 5.2% | Selectivity 5-HT2C/2A (functional, in parentheses) (human 5-HT2C receptor [4]): 9.55 | Ki (human 5-HT2B receptor): 74.1 nM

COc1ccc(Cl)cc1CNCCc1c[nH]c2ccccc12 (as salt: hydrochloride) [Compound 28, N-(5-Chloro-2-methoxybenzyl)-[2-(1H-indol-3-yl)ethyl]amine]
melting point: 184 to 185 °C

COc1cccc(CNCCc2c[nH]c3ccccc23)c1O (as salt: succinate) [Compound 19, N-(2-Hydroxy-3-methoxybenzyl)-[2-(1H-indol-3-yl)ethyl]amine]
melting point: 109 to 111 °C

COc1ccc2[nH]cc(CCNCc3ccccc3Cl)c2c1 [Compound 39, N-(2-Chlorobenzyl)-[2-(5-methoxy-1H-indol-3-yl)ethyl]amine]
Selectivity 5-HT2A/2C (binding) (human 5-HT2A receptor [1]): 5.51 | Ki (human 5-HT2A receptor [1]): 13.5 nM | Selectivity 5-HT2C/2A (binding, in parentheses) (human 5-HT2C receptor [2]): 0.18 | Ki (human 5-HT2C receptor [2]): 74.1 nM | EC50 (human 5-HT2A receptor [3]): 12 nM | Selectivity 5-HT2A/2C (functional) (human 5-HT2A receptor [3]): 6.76 | Emax (human 5-HT2A receptor [3]): 47.7 ± 1.57% | EC50 (human 5-HT2C receptor [4]): 81.3 nM | Emax (human 5-HT2C receptor [4]): 106 ± 4.32% | Selectivity 5-HT2C/2A (functional, in parentheses) (human 5-HT2C receptor [4]): 0.15 | Ki (human 5-HT2B receptor): 37.1 nM
